Data published in doi:10.1101/2025.02.17.638454, “Synergistic RAS-MAPK and AKT Activation in MYC-Driven Tumors via Adjacent PVT1 Rearrangements” (bioRxiv, 2025).
No end group written: not given here.

System: phospho-MEK1/2, phospho-ERK1/2, phospho-p90RSK (RAS/MAPK pathway)
Test: Western blot of RAS/MAPK effectors in D458
Assay type: cell-based
Protocol: For whole-cell lysate, the cell pellet was resuspended in RIPA buffer (Cell Signaling Technologies, Danvers, MA) supplemented with a protease inhibitor cocktail (Cell Signaling Technologies) and incubated on ice for 20 minutes. The lysate was then centrifuged at 14,000 revolutions/minute for 10 minutes at 4°C, and the supernatant was harvested. Protein concentration was quantified by BCA Protein Assay Kit (Thermo Fisher Scientific) as per kit protocol. Next, 20 μg of whole-cell lysate was electrophoresed on a 4%–20% gradient polyacrylamide gel with SDS (Bio-Rad, Hercules, CA) and electroblotted onto polyvinylidene difluoride membranes (Bio-Rad). Membranes were blocked in Tris-buffered saline with 5% nonfat milk and 0.1% Tween and probed with antibodies. Bound proteins were detected with horseradish-peroxidase–conjugated secondary antibodies (Cell Signaling Technologies) and SuperSignal West Femto (Thermo Fisher Scientific). […]
The HNB ORF and eGFP (control) were cloned in an inducible lentivirus expression, TRE-gateway plasmid (pLIX_403, Addgene, #41395). […] The protein lysates were collected and quantified using the previously described protocol. […] Bound proteins were detected with horseradish-peroxidase–conjugated secondary antibodies (Cell Signaling Technologies) and SuperSignal West Femto (Thermo Fisher Scientific). […]

MKTQLGAVKGFLHV [HNB] was tested, and the “phosphorylation of MEK1/2, ERK1/2 and p90RSK” value (D458 (wild type KRAS), doxycycline-induced HNB, 1 μg/mL Dox 48 h, n=3, unpaired t-test) was “significantly dampened the phosphorylation” and the ERK1/2 phosphorylation (D458, ectopic (doxycycline-inducible) expression, HNB vs mutant, Figure 5L) was “significantly diminished ERK1/2 phosphorylation”.
